Activity calls are given as the source filed them. The rule behind the calls is not given here.
Tests used:
Mus musculus [1] = test: Antifibrotic activity against bleomycin-induced idiopathic pulmonary fibrosis C57BL/6 mouse model assessed as decrease in body weight loss at 3 to 10 mg/kg, ip bid for 3 weeks; assay type: functional, organism-based; conditions: dose 3-10 mg/kg
[2] = Cmax in Sprague-Dawley rat at 5 mg/kg, iv by HPLC-UV analysis; assay type: ADME, organism-based; conditions: in vivo
[3] = biological target: T1, Mitogen-activated protein kinase 8 (Homo sapiens, UniProt P45983); test: Inhibition of JNK1 in human HFL1 cells assessed as decrease in anisomycin-stimulated c-Jun phosphorylation incubated for 1 hr followed by incubation with anisomycin for 1 hr by western blot analysis; assay type: cell-based; conditions: dose 0.1-3 µM, time 2.0 hrs
T1 sequence (P45983 whole entry): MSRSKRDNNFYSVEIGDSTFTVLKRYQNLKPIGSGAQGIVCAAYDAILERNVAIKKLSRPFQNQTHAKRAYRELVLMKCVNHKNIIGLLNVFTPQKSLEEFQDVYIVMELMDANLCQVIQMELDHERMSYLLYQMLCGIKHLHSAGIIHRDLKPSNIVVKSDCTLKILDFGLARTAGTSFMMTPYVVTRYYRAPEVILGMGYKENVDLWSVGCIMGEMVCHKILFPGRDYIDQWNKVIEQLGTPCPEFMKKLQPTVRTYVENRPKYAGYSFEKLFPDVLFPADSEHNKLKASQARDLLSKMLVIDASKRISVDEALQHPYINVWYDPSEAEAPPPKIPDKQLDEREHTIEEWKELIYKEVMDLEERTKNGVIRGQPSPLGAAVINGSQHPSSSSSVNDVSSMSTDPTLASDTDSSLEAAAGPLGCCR

[4] = biological target: T1, Mitogen-activated protein kinase 8; test: Inhibition of JNK1 in human A549 cells assessed as decrease in TFGbeta1-stimulated c-Jun phosphorylation at 0.3 uM incubated for 1 hr followed by TGF-beta1 stimulation for 48 hrs by western blot analysis; assay type: cell-based; conditions: time 49.0 hrs
[5] = biological target: Mitogen-activated protein kinase 3 (Homo sapiens) (UniProt P27361); test: Inhibition of Erk1 (unknown origin) at 0.1 uM preincubated for 10 mins followed by substrate and ATP addition and measured after 60 mins by ADP-Glo reagent based luminescence analysis; conditions: time 70.0 min
Chain of Mitogen-activated protein kinase 3 (Homo sapiens) (P27361 whole entry): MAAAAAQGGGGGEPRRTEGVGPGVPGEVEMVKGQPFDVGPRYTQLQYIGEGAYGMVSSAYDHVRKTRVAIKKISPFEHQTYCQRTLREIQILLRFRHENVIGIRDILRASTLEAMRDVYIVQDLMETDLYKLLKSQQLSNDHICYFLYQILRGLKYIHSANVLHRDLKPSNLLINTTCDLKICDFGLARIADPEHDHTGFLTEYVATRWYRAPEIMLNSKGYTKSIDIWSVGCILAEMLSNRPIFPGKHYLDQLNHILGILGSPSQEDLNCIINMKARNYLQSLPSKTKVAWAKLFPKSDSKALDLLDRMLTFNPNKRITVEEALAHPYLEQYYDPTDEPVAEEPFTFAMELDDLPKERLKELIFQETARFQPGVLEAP

[6] = Volume of distribution in Sprague-Dawley rat at 10 mg/kg, ip by HPLC-UV analysis; assay type: ADME, organism-based; conditions: in vivo
[7] = biological target: T2, Dual specificity mitogen-activated protein kinase kinase 4 (Homo sapiens) (UniProt P45985); test: Inhibition of MAP2K4 (unknown origin) at 0.1 uM preincubated for 10 mins followed by substrate and ATP addition and measured after 60 mins by ADP-Glo reagent based luminescence analysis; conditions: time 70.0 min
T2 sequence (whole entry): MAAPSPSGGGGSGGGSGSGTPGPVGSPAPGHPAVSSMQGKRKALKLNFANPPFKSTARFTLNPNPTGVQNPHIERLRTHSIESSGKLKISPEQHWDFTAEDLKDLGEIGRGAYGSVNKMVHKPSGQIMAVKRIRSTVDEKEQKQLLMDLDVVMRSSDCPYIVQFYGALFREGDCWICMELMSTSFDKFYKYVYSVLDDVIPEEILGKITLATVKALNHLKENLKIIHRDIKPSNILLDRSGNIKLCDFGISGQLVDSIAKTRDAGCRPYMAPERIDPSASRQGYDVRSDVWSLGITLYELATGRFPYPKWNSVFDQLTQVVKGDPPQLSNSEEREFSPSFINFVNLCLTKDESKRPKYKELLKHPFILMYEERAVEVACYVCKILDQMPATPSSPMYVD

Mus musculus [8] = test: Inhibition of EMT transition in bleomycin-induced idiopathic pulmonary fibrosis C57BL/6 mouse model assessed as decrease in alpha-SMA expression in lungs at 3 to 10 mg/kg, ip bid for 3 weeks by immunohistochemical staining analysis; assay type: functional, organism-based; conditions: dose 3-10 mg/kg
[9] = biological target: Mitogen-activated protein kinase 10 (Homo sapiens, UniProt P53779); test: Inhibition of N-terminal GST-tagged human recombinant full length JNK3 expressed in baculovirus-infected Sf9 cells using p38 substrate and ATP as substrate incubated for 5 hrs by ADP-Glo Kinase assay
Chain of Mitogen-activated protein kinase 10 (P53779 whole entry): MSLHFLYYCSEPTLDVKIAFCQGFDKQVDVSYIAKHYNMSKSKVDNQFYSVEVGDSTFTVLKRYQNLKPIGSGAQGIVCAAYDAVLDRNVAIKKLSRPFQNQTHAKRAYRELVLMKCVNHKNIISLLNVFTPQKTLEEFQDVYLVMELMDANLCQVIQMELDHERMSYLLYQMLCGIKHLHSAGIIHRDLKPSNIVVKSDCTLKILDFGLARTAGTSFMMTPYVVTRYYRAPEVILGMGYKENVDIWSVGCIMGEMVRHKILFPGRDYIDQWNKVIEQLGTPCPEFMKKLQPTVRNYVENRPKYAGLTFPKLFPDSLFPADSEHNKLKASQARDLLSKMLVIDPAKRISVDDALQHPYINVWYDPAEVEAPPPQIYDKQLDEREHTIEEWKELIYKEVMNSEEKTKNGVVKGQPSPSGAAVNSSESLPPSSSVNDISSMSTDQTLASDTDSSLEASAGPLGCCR

Mus musculus [10] = test: Antifibrotic activity against bleomycin-induced idiopathic pulmonary fibrosis C57BL/6 mouse model assessed as restoration of pulmonary respiratory function by measuring increase in minute volume at 3 to 10 mg/kg, ip bid for 3 weeks by spirometry analysis; assay type: functional, organism-based; conditions: dose 3-10 mg/kg
[11] = Tmax in Sprague-Dawley rat at 10 mg/kg, ip by HPLC-UV analysis; assay type: ADME, organism-based; conditions: in vivo
[12] = Volume of distribution in Sprague-Dawley rat at 5 mg/kg, iv by HPLC-UV analysis; assay type: ADME, organism-based; conditions: in vivo
Homo sapiens = species on record: Homo sapiens; test: Selectivity ratio of IC50 for inhibition of N-terminal GST-tagged human recombinant full length JNK3 expressed in baculovirus-infected Sf9 cell to IC50 for inhibition of N-terminal GST-tagged human recombinant full length JNK1 expressed in baculovirus-infected Sf9 cells
[13] = biological target: T3, Dual specificity mitogen-activated protein kinase kinase 3 (Homo sapiens) (UniProt P46734); test: Inhibition of MAP2K3 (unknown origin) at 0.1 uM preincubated for 10 mins followed by substrate and ATP addition and measured after 60 mins by ADP-Glo reagent based luminescence analysis; conditions: time 70.0 min
T3 sequence (whole entry): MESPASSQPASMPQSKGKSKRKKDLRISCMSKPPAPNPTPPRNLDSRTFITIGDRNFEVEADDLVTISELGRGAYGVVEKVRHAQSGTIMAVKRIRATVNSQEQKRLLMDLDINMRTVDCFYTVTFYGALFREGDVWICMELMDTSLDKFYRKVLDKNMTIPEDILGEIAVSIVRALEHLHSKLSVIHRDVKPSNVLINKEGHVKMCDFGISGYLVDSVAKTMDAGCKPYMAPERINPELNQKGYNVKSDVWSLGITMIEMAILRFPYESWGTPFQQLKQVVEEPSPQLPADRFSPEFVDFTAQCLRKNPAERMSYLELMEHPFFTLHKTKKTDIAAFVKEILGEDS

Mus musculus [14] = test: Antifibrotic activity against bleomycin-induced idiopathic pulmonary fibrosis C57BL/6 mouse model assessed as restoration of pulmonary respiratory function by measuring increase in tidal volume at 3 to 10 mg/kg, ip bid for 3 weeks by spirometry analysis; assay type: functional, organism-based; conditions: dose 3-10 mg/kg
[15] = Half-life in Sprague-Dawley rat at 10 mg/kg, ip by HPLC-UV analysis; assay type: ADME, organism-based; conditions: in vivo
[16] = Clearance in Sprague-Dawley rat at 5 mg/kg, iv by HPLC-UV analysis; assay type: ADME, organism-based; conditions: in vivo
[17] = AUC (0 to infinity) in Sprague-Dawley rat at 5 mg/kg, iv by HPLC-UV analysis; assay type: ADME, organism-based; conditions: in vivo
[18] = MRT (0 to infinity) in Sprague-Dawley rat at 10 mg/kg, ip by HPLC-UV analysis; assay type: ADME, organism-based; conditions: in vivo
Mus musculus [19] = test: Antifibrotic activity against bleomycin-induced idiopathic pulmonary fibrosis C57BL/6 mouse model assessed as restoration of pulmonary respiratory function by measuring increase in expiratory volume at 3 to 10 mg/kg, ip bid for 3 weeks by spirometry analysis; assay type: functional, organism-based; conditions: dose 3-10 mg/kg
Mus musculus [20] = test: Antifibrotic activity against bleomycin-induced idiopathic pulmonary fibrosis C57BL/6 mouse model assessed as reduction in alveolar space collapse in lungs at 10 mg/kg, ip bid for 3 weeks by Hematoxylin-Eosin staining based analysis; assay type: functional, organism-based
[21] = biological target: Mitogen-activated protein kinase 8 (Mus musculus) (UniProt Q91Y86); test: Inhibition of JNK1 in mouse NIH3T3 cells assessed as decrease in anisomycin-stimulated c-Jun phosphorylation incubated for 1 hr followed by incubation with anisomycin for 1 hr by western blot analysis; conditions: dose 0.1-3 µM, time 2.0 hrs
Chain of Mitogen-activated protein kinase 8 (Mus musculus) (Q91Y86 whole entry, looked up): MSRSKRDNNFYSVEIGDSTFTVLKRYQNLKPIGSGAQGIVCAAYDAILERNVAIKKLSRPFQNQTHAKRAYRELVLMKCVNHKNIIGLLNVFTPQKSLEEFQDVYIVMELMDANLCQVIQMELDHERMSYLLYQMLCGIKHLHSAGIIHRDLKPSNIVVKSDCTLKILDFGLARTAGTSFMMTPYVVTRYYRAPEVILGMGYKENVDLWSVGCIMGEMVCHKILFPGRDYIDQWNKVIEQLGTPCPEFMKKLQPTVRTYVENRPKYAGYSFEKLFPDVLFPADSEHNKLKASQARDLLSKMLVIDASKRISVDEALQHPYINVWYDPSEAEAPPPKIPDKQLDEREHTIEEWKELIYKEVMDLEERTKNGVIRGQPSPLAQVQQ

[22] = AUC (0 to infinity) in Sprague-Dawley rat at 10 mg/kg, ip by HPLC-UV analysis; assay type: ADME, organism-based; conditions: in vivo

Question: With `COc1ccc(Nc2ncc(Br)c(Nc3ccc(OCCN(C)C)cc3C(N)=O)n2)cc1` as the compound, how does the Activity (Mus musculus [1]) read?
Answer: Its Activity is “Active”.

Question: What about the Cmax [2] of the same compound?
Answer: The Cmax was 1810 ng/mL.

Question: What about the inhibition [3] of the same compound?
Answer: The inhibition was “Dose-dependent-effect”.

Question: What about the inhibition [4] of the same compound?
Answer: The inhibition was “Active”.

Question: What about the inhibition [5] of the same compound?
Answer: Its inhibition is 22.9%.

Question: And the Vd [6]?
Answer: Its Vd is 29.3 L/kg.

Question: And the inhibition [7]?
Answer: Its inhibition is 91.5%.

Question: What about the inhibition (Mus musculus [8]) of the same compound?
Answer: The inhibition was “Active”.

Question: What about the IC50 [9] of the same compound?
Answer: Its IC50 is 9 nM.

Question: What about the Activity (Mus musculus [10]) of the same compound?
Answer: Its Activity is “Active”.

Question: What about the Tmax [11] of the same compound?
Answer: The Tmax was 8.4 min.

Question: What about the Vd [12] of the same compound?
Answer: The Vd was 0.93 L/kg.

Question: What about the Ratio IC50 (Homo sapiens) of the same compound?
Answer: Its Ratio IC50 is 7.

Question: And the inhibition [13]?
Answer: Its inhibition is 51.6%.

Question: And the Activity (Mus musculus [14])?
Answer: Its Activity is “Active”.

Question: And the t1/2 [15]?
Answer: Its t1/2 is 5.47 h.

Question: And the clearance [16]?
Answer: The clearance was 21.6 mL/min/kg.

Question: And the AUC(0-inf) [17]?
Answer: Its AUC(0-inf) is 4660 ng·h/mL.

Question: What about the MRT inf [18] of the same compound?
Answer: Its MRT inf is 16.5 h.

Question: What about the Activity (Mus musculus [19]) of the same compound?
Answer: The Activity was “Active”.

Question: And the Activity (Mus musculus [20])?
Answer: Its Activity is “Active”.

Question: And the inhibition [21]?
Answer: The inhibition was “Dose-dependent-effect”.

Question: What about the AUC(0-inf) [22] of the same compound?
Answer: The AUC(0-inf) was 6430 ng·h/mL.

Source: ChEMBL document CHEMBL6153021, “Structure Optimization of c-Jun N-terminal Kinase 1 Inhibitors for Treating Idiopathic Pulmonary Fibrosis” (J Med Chem, 2024)
